Literature values in patent US8679552B2, “Acne vulgaris treatment regimen” (priority 2008, dated 2014).
Blank lines part the entries; values can stand above or below the compound they belong to.

Experiments:
type-1 5 alpha-reductase = biological target: T1, type-1 5 alpha-reductase (Homo sapiens, UniProt P18405)
T1 sequence (P18405 1-259): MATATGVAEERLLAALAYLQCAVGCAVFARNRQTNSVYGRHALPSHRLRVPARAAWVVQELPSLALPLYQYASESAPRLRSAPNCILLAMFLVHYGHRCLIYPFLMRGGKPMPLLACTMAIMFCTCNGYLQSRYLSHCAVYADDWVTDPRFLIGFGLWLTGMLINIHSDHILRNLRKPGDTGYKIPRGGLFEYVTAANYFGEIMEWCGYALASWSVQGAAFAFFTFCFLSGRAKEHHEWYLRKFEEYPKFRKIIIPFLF

comedones = conditions: topical
5 alpha-reductase [1] = test system: 5 alpha-reductase
[2] = test system: 17-beta-hydroxysteroid dehydrogenase
5 alpha-reductase [3] = test system: 5 alpha-reductase; remark: listed apart in the source
skin irritation = conditions: concentrations of 5%, three to four week period

inhibition of type-1 5 alpha-reductase (type-1 5 alpha-reductase): potent inhibitors
Compound: O=C(/C=C/c1ccc(O)c(O)c1)OCCc1ccccc1 [caffeic acid phenethyl ester]

Compound: CC1=C(/C=C/C(C)=C/C=C/C(C)=C/C=O)C(C)(C)CCC1 [Retinaldehyde]
effectiveness at preventing comedones (comedones; concentration of 0.1%): as effective at preventing comedones as other topical vitamin A products
in vitro antibacterial activity against gram-positive bacteria (gram-positive bacteria): significant in vitro antibacterial activity

5 alpha-reductase inhibitory activity (5 alpha-reductase [1]): most potent inhibitor
Compound: O=C1OC[C@H](Cc2cccc(O)c2)[C@H]1Cc1cccc(O)c1 [enterolactone]

concentration which suppresses 17-beta-hydroxysteroid dehydrogenase activity [2]: ≥ 4 microMolar
Compound: CC1(C)[C@@H](O)CC[C@]2(C)[C@H]3C(=O)C=C4[C@@H]5C[C@@](C)(C(=O)O)CC[C@]5(C)CC[C@@]4(C)[C@]3(C)CC[C@@H]12 [glycyrrhetinic acid]

inhibition of type-1 5 alpha-reductase (type-1 5 alpha-reductase): potent inhibitors
Compound: CC(Cc1ccc(O)c(O)c1)C(C)Cc1ccc(O)c(O)c1 (stereo not drawn) [nordihydroguaiaretic acid]

Compound: Oc1ccc2c(O)c3ccccc3cc2c1O [anthrarobin]
inhibition of type-1 5 alpha-reductase (type-1 5 alpha-reductase): potent inhibitors

inhibition of type-1 5 alpha-reductase (type-1 5 alpha-reductase): potent inhibitors
Compound: CCCCCCCCCCCCOC(=O)c1cc(O)c(O)c(O)c1 [lauryl gallate]

inhibition of type-1 5 alpha-reductase (type-1 5 alpha-reductase): potent inhibitors
Compound: O=c1cc(-c2ccccc2)oc2cc(O)c(O)c(O)c12 [baicalein]

Compound: epigallocatechin 3-gallate [EGCG]
inhibition of 5 alpha-reductase in cell-free assay systems (5 alpha-reductase [1]; cell-free): potent inhibition
inhibition of 5 alpha-reductase in whole-cell assay systems (5 alpha-reductase [3]): not in whole-cell assay systems

Compound: Cc1ncc(CO)c(CO)c1O.Cl [Vitamin B6, Pyridoxine hydrochloride]
increase in the inhibition of 5 alpha-reductase (5 alpha-reductase [1]; Vitamin B6 (0.025%) added to zinc sulfate (1.5 to 3 milliMolar/liter)): two fold increase

Compound: O=C(O)c1ccccc1O [salicylic acid, Salicylic acid]
comedolytic effect (comedones; concentrations of 0.5% to 2.0%): moderately comedolytic

inhibition of type-1 5 alpha-reductase (type-1 5 alpha-reductase): potent inhibitors
Compound: CCCCCCCCOC(=O)c1cc(O)c(O)c(O)c1 [octyl gallate]

concentration at which effective / potent 5 alpha-reductase inhibitor (5 alpha-reductase [1]): ≥ 0.2 milliMolar
concentration that is completely inhibitory of 5 alpha-reductase (5 alpha-reductase [1]): 3 milliMolar
Compound: O=C(O)CCCCCCCC(=O)O [Azelaic acid]

Compound: CC(C)(CO)[C@@H](O)C(=O)NCCCO [dexpanthenol]
symptoms of skin irritation (dryness, roughness, scaling, pruritis, erythema, erosion/fissures) (skin irritation): considerably improves

Compound: O=C1c2ccccc2C(=O)c2c1ccc(O)c2O [alizarin]
inhibition of type-1 5 alpha-reductase (type-1 5 alpha-reductase): potent inhibitors

Compound: O=c1c(O)c(-c2ccc(O)c(O)c2)oc2cc(O)cc(O)c12 [quercitin]
inhibition of type-1 5 alpha-reductase (type-1 5 alpha-reductase): potent inhibitors

Compound: [Zn+2] [Zinc cation]
inhibition of 5 alpha-reductase enzyme activity at high concentrations (5 alpha-reductase [1]; high concentrations): completely inhibiting the enzyme activity

inhibition of type-1 5 alpha-reductase (type-1 5 alpha-reductase): potent inhibitors
Compound: O=c1c(O)c(-c2ccc(O)c(O)c2)oc2cc(O)ccc12 [fisetin]
